In the assay the test system is DMS-114 complex spheroids with HUVEC/MSC, growth % test/control. As to the kind of experiment: Anticancer human tumor DMS-114 cell line growth inhibition [AhR].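 On all read-outs here: spheroids exposed to agents for 7 days before readout.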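 On viability, T/C: 100% = DMSO vehicle control wells.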 Particulars: for viability, T/C: stronger effect = lower value; for IC50: curve of compound. The source says:
Multicellular complex tumor spheroid response to aryl hydrocarbon receptor antagonists in combination with a variety of drugs and investigational agents in selected tumor cell lines
The current study was undertaken to assess response to aryl hydrocarbon receptor antagonists in combination with standard-of-care drugs and investigational agents in solid tumor complex spheroid models. Complex spheroids include a stromal component modeled by human endothelial cells (HUVEC) and fibroblasts modeled by human mesenchymal stem cells (MSCs). The concentration ranges selected for each drug and investigational agent were based upon clinically achievable concentrations if the clinical Cmax of the agent was known.
Compounds. The drugs and investigational agents: BAY 2416964 (NSC825713), GNF351 (NSC835774), CH-223191 (NSC835775), CPI-455 (NSC825282), aza-TdCyd (NSC777586), decitabine (NSC127716), belinostat (NSC758774), entinostat (NSC756642), pevonedistat (NSC761192), tazemetostat (NSC777109), talazoparib (NSC765396), olaparib (NSC753686), selinexor (NSC780203), nedisertib (M3814, NSC802822), bortezomib (NSC756655), venetoclax (NSC766270), doxorubicin (NSC123127), elimusertib (BAY189344, NSC800525), ceralasertib (AZD6738, NSC777638), TAK-243 (NSC785004), alisertib (NSC759677), etoposide (NSC141540), topotecan (NSC609699), eribulin (NSC707389), gemcitabine (NSC613327), carboplatin (NSC241240), cisplatin (NSC119875), and SN-38 (NSC673596) were obtained from the National Cancer Institute (NCI) Developmental Therapeutics Program Chemical Repository (32). The FDA-approved anticancer drug set is available from the Developmental Therapeutics Program at https://dtp.cancer.gov/organization/dscb/obtaining/available plates.htm. […] The stock solutions were prepared in dimethyl sulfoxide (DMSO, Sigma-Aldrich, St. Louis, MO, cat. D2650), except for the platinum compounds which were prepared in saline (Quality Biological, Gaithersburg, MD, cat. 114-055-101), at 800-fold the tested concentration and stored at -70 degrees C prior to their use. All drugs and investigational agents were tested over a range starting from a high concentration at or near the clinical Cmax and decreasing in half-log increments. If the clinical Cmax for an agent had not been determined, the highest concentration tested was 10 microM (Table 1).
Cell Culture. All cells were maintained in an incubator at 37 degrees C and 5% CO2 with 95% humidity. The PDC lines were cultured according to standard operating procedures established by the NCI PDMR (https://pdmr.cancer.gov). Briefly, all PDCs were thawed and cultured in Matrigel-coated flasks prepared with a working solution of 1X Ham's F-12 nutrient mix, without supplementation (Invitrogen, Waltham, MA, cat. 11765054), 100 U/mL penicillin-streptomycin (Invitrogen, cat. 15140122), and 2.5% Matrigel (Corning Inc., Corning, NY, cat. 354248) for the first three passages. All PDCs were cultured in complete DMEM/F-12 media containing advanced DMEM/F-12 (Invitrogen, cat. 12634028), 4.9% defined fetal bovine serum, heat inactivated (HyClone Laboratories Inc., Logan, UT, cat. SH30070.03HI), 389 ng/mL hydrocortisone (Sigma-Aldrich, cat. H4001), 9.7 ng/mL human EGF recombinant protein (Invitrogen, cat. PHG0313), 23.4 microg/mL adenine (Sigma-Aldrich, cat. A2786), 97.3 U/mL penicillin-streptomycin (Invitrogen, cat. 15140122), 1.9 mM L-glutamine (Invitrogen, cat. 25030081), and 9.7 microM Y-27632 dihydrochloride (Tocris Bioscience, Bristol, United Kingdom, cat. 1254). The PDCs were cultured in complete DMEM/F12 media without 10 microM Y-27632 dihydrochloride for at least two passages prior to the screen. The established cell lines NCI-H1341 and […] were cultured in DMEM/F-12, HEPES (Invitrogen, cat. 11330032), 5% defined fetal bovine serum (HyClone Laboratories Inc., cat. SH30070.03), ITS premix universal culture supplement [insulin (5 microg/mL), transferrin (5 microg/mL), and selenious acid (5 ng/mL)] […]

Experimental findings from PubChem BioAssay AID1919008 (Molecular Pharmacology Branch, DTP, NCI, 2023) are described below.

Where “and” joins values, the source holds several entries; their conditions need not be identical. Equal values may be shown once.

Broadly, the viability, T/C is the result in the treated group divided by that in the control group, in per cent. By IC50 is commonly meant the concentration that inhibits the measured activity by half. Consider `CC(C)CC(NC(=O)C(Cc1ccccc1)NC(=O)c1cnccn1)B(O)O` (stereo unspecified), for which the IC50 is 5.51 nM and 5.76 nM and 4 nM. Besides, the viability, T/C (compound 0.000949 µM) was 98.7% and 95% and 101%. Moreover, the viability, T/C (compound 0.003 µM) is 109% and 105% and 66.2%. Moreover, under “compound 0.00949 µM”, the viability, T/C was 1.7% and 11.6% and 1.54%. The viability, T/C (compound 0.03 µM) is 0.16% and 0.44% and 0.39%. Where the note is “compound 0.0949 µM”, the viability, T/C was 0.13% and 0.38% and 0.33%. Besides, under “compound 0.3 µM”, the viability, T/C is 0.21% and 0.32% and 0.4%.

On to `CC1(C)CCC(CN2CCN(c3ccc(C(=O)NS(=O)(=O)c4ccc(NCC5CCOCC5)c([N+](=O)[O-])c4)c(Oc4cnc5[nH]ccc5c4)c3)CC2)=C(c2ccc(Cl)cc2)C1`, for which the IC50 is over 10000 nM. The viability, T/C (compound 0.0316 µM) was 101% and 99.7% and 98.9%. Moreover, the viability, T/C (compound 0.1 µM) is 102% and 97.2% and 99%. Further, the viability, T/C (compound 0.316 µM) was 92.6% and 103% and 110%. Further, the viability, T/C (compound 1 µM) was 98.6% and 108% and 117%. The viability, T/C (compound 3.16 µM) is 113% and 107% and 116%. Also, for the setting “compound 10 µM”, the viability, T/C is 107% and 105% and 61.2%.

On to `CC1COCCN1c1cc(-c2ccnn2C)c2ccnc(-c3ccn[nH]3)c2n1` (stereo unspecified), for which the viability, T/C by setting is: (compound 0.00316 µM) 89.5% and 94.4% and 96.2%; (compound 0.01 µM) 76.2% and 102% and 80.5%; (compound 0.0316 µM) 50.2% and 101% and 62.9%; (compound 0.1 µM) 32.1% and 81.2% and 45%; (compound 0.316 µM) 21.2% and 65.8% and 31.5%; (compound 1 µM) 10.6% and 33.4% and 15.8%.

Take `CCN(c1cc(-c2ccc(CN3CCOCC3)cc2)cc(C(=O)NCc2c(C)cc(C)[nH]c2=O)c1C)C1CCOCC1`: the IC50 is over 3000 nM. Also, the viability, T/C (compound 0.00949 µM) is 99.5% and 108% and 105%. Further, the viability, T/C (compound 0.03 µM) is 110% and 95.2% and 118%. The viability, T/C (compound 0.0949 µM) was 112% and 105% and 109%. In addition, where the note is “compound 0.3 µM”, the viability, T/C was 101% and 100% and 115%. In addition, the viability, T/C (compound 0.949 µM) was 73.7% and 104% and 92.1%. The viability, T/C (compound 3 µM) was 68.2% and 106% and 76.9%.

Take `CC[C@@]1(O)C(=O)OCc2c1cc1n(c2=O)Cc2cc3c(CN(C)C)c(O)ccc3nc2-1`: the 50% inhibitory concentration (IC50) was 23.4 nM and 27.8 nM and 64.4 nM. Also, the viability, T/C (compound 0.000316 µM) was 101% (2×) and 99%. Moreover, the viability, T/C (compound 0.001 µM) was 96.5% and 104% and 98.2%. Further, the viability, T/C (compound 0.00316 µM) was 93.2% and 85.7% and 107%. Moreover, the viability, T/C (compound 0.01 µM) was 79.9% and 87.8% and 95.2%. For the same compound, under “compound 0.0316 µM”, the viability, T/C was 39.3% and 44.6% and 60.9%. The viability, T/C (compound 0.1 µM) is 19% and 22.2% and 43.2%.

Consider `CCc1c2c(nc3ccc(O)cc13)-c1cc3c(c(=O)n1C2)COC(=O)[C@]3(O)CC`, for which the IC50 was 2.01 nM and 9.5 nM and 1.79 nM. Also, for the setting “compound 0.000949 µM”, the viability, T/C is 67.7% and 96.1% and 59.2%. The viability, T/C (compound 0.003 µM) was 40.4% and 91.2% and 42.6%. Moreover, the viability, T/C (compound 0.00949 µM) was 20% and 50% and 21.4%. Moreover, the viability, T/C (compound 0.03 µM) was 13.4% and 36.5% and 21.1%. Besides, for the setting “compound 0.0949 µM”, the viability, T/C is 14.4% and 37.9% and 15.2%. Further, for the setting “compound 0.3 µM”, the viability, T/C is 14.4% and 35.1% and 16.7%.

As for `COc1cc(C2c3cc4c(cc3C(OC3OC5COC(C)OC5C(O)C3O)C3COC(=O)C23)OCO4)cc(OC)c1O` (stereo unspecified), the IC50 was 402 nM and 682 nM and 1810 nM. Besides, the viability, T/C (compound 0.0316 µM) is 96.4% and 99.5% and 94.3%. Also, under “compound 0.1 µM”, the viability, T/C was 85.2% and 85.9% and 99%. In addition, where the note is “compound 0.316 µM”, the viability, T/C was 57.3% and 77% and 89.2%. Also, the viability, T/C (compound 1 µM) is 23.7% and 34.1% and 60.9%. Where the note is “compound 3.16 µM”, the viability, T/C was 16.9% and 30.2% and 40.8%. For the same compound, the viability, T/C (compound 10 µM) was 9.04% and 15.1% and 30.3%.

For `COc1cc(Nc2ncc3c(n2)-c2ccc(Cl)cc2C(c2c(F)cccc2OC)=NC3)ccc1C(=O)O`, the viability, T/C reads like this: (compound 0.0316 µM) 24.8% and 65.8% and 25.6%; (compound 0.1 µM) 24.5% and 56.9% and 27.2%; (compound 0.316 µM) 40% and 108% and 56%; (compound 1 µM) 65.1% and 114% and 79%; (compound 3.16 µM) 64% and 116% and 85.6%; (compound 10 µM) 74.5% and 104% and 61.2%.

Regarding `COc1cccc2c1C(=O)c1c(O)c3c(c(O)c1C2=O)CC(O)(C(=O)CO)CC3OC1CC(N)C(O)C(C)O1` (stereo unspecified), the IC50 was < 31.6 nM and 115 nM. The viability, T/C (compound 0.0316 µM) is 23.9% and 68.6% and 44.3%. The viability, T/C (compound 0.1 µM) was 18% and 54.1% and 32.1%. The viability, T/C (compound 0.316 µM) was 4.97% and 18.6% and 9.53%. The viability, T/C (compound 1 µM) was 0.27% and 1.97% and 1.19%. Besides, the viability, T/C (compound 3.16 µM) is 0.18% and 0.45% and 0.38%. Moreover, the viability, T/C (compound 10 µM) is 0.28% and 0.73% and 0.56%.
